Results taken from PubChem BioAssay AID1963848 (Molecular Pharmacology Branch, DTP, NCI, 2024).
Values joined by “and” are separate entries in the source; they are usually repeats but may differ in a detail not shown here. Equal values may be shown once.

Tested on: 379773-124-R-J2-PDC spheroid viability
Assay: Anticancer human tumor 379773-124-R-J2-PDC patient-derived endometrial carcinoma cell line growth inhibition [POLQ]
Conditions: spheroids with HUVEC and MSC; for viability, T/C: stronger effect = lower value
Method: Multicellular complex tumor spheroid response to Polymerase (POL) inhibitors (novobiocin, ART-558, RP6685) in combination with a variety of drugs and investigational agents in selected tumor cell lines
The POL inhibitors (novobiocin, ART-558, and RP6685) were evaluated both individually and in combination with standard of care and investigational anticancer small molecules within a complex spheroid model of solid tumors. . Complex spheroids include a stromal component modeled by human endothelial cells (HUVEC) and fibroblasts modeled by human mesenchymal stem cells (MSCs). The concentration ranges selected for each drug and investigational agent were based upon clinically achievable concentrations if the clinical Cmax of the agent was known.
Compounds. The drugs and investigational agents: novobiocin (NSC847541), ART-558 (NSC835418), RP-6685 (NSC848927), peposertib (NSC802822), ceralasertib (NSC780249), elimusertib (NSC800525), camonsertib (NSC841442), AZD-1390 (NSC803789), olaparib (NSC753686), talazoparib (NSC767125), rucaparib (NSC756644), sotorasib (NSC818433), MRTX-1133 (NSC836407), SN-38 (NSC673596), topotecan (NSC609699), epotoside (NSC141540), doxorubicin (NSC123127), gemcitabine (NSC613327), 5-fluorouracil (NSC19893), paclitaxel (NSC125973), vemurafenib (NSC761431), MSA-2 (NSC828583), SN-011 (NSC837082), adavosertib (NSC754352), prexasertib (NSC758257), carboplatin (NSC241240) and oxaliplatin (NSC266046), were obtained from the National Cancer Institute (NCI) Developmental Therapeutics Program Chemical Repository (21). The FDA-approved anticancer drug set is available from the Developmental Therapeutics Program at https://dtp.cancer.gov/organization/dscb/obtaining/. […] The stock solutions were prepared in dimethyl sulfoxide (DMSO, Sigma-Aldrich, St. Louis, MO, cat. D2650), except for the platinum compounds which were prepared in saline (Quality Biological, Gaithersburg, MD, cat. 114-055-101), at 800-fold the tested concentration and stored at -70 degrees C prior to their use. All drugs and investigational agents were tested over a range starting from a high concentration at or near the clinical Cmax and decreasing in half-log increments. If the clinical Cmax for an agent had not been determined, the highest concentration tested was 10 microM, except for SN-38, which was tested at a high concentration of 1 microM.
Cell Culture. All cells were maintained in an incubator at 37 degrees C and 5% CO2 with 95% humidity. The PDC lines were cultured according to standard operating procedures established by the NCI PDMR (https://pdmr.cancer.gov). Table 3 of the manuscript, lists the cell lines along with the number of the three cell types plated to form the mct-spheroids and media for tumor cell growth. After thawing, all PDC lines, except 997537-175-T-J1-PDC and 415267-285-R-J2-PDC, were cultured in Matrigel-coated flasks prepared with a working solution of 1X Ham's F-12 nutrient mix, without supplementation (Thermo Fisher Scientific, cat. 11765054), 100 U/mL penicillin-streptomycin (Thermo Fisher Scientific, cat. 15140122), and 2.5% Matrigel (Corning Inc., Corning, NY, cat. 354248) for the first three passages. The two PDC lines 997537-175-T-J1-PDC and 415267-285-R-J2-PDC were cultured on uncoated flasks. The 857933-349-R-J2-PDC line was cultured in 6C/Colon 1B media containing advanced DMEM/F-12 (Thermo Fisher Scientific, cat. 12634028), 10 mM HEPES (Thermo Fisher Scientific, cat. 15630080), 1X GlutaMAX supplement (Thermo Fisher Scientific, cat. 35050061), 0.1 mg/mL primocin (InvivoGen, San Diego, CA, cat. ant-pm-2), 10% defined fetal bovine serum, heat inactivated (HyClone Laboratories Inc., Logan, UT, cat. SH30070.03HI), 50% L-WRN conditioned media (ATCC, cat. CRL-3276), 1.25 mM N-Acetyl-L-cysteine (Sigma-Aldrich, cat. A9165), 10 mM nicotinamide (Sigma-Aldrich, cat. N0636), 1X B-27 supplement (Thermo Fisher Scientific, cat. 17504044), 1X N-2 supplement (Thermo Fisher Scientific, cat. […]
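Also: spheroids exposed to drugs for seven days before readout.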
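For viability, T/C in this document: percent viability relative to DMSO vehicle control taken as 100%.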

SMILES: CC1COCCN1c1cc(C2(O)CC3CCC(C2)O3)c2cnn(-c3ccn[nH]3)c2n1 (centres undefined)
- viability, T/C (compound 0.0316 µM): 90.7% and 78.4% and 84.5%
- viability, T/C (compound 0.1 µM): 43% and 48.6% and 58.8%
- viability, T/C (compound 0.316 µM): 11.1% and 12% and 16.6%
- viability, T/C (compound 1 µM): 10.4% and 9.93% and 13.2%
- viability, T/C (compound 3.16 µM): 8.43% and 7.19% and 10.1%
- viability, T/C (compound 10 µM): 2.25% and 2.29% and 3.67%
- IC50 (curve of compound): 84.4 nM and 94.4 nM and 127 nM

SMILES: COc1cccc2c1C(=O)c1c(O)c3c(c(O)c1C2=O)CC(O)(C(=O)CO)CC3OC1CC(N)C(O)C(C)O1 (centres undefined) + COC1C(OC(N)=O)C(O)C(Oc2ccc3c(O)c(NC(=O)c4ccc(O)c(CC=C(C)C)c4)c(=O)oc3c2C)OC1(C)C
- IC50 (curve of first compound, second compound 0.0316 µM): 56.8 nM
- IC50 (curve of first compound, second compound 0.1 µM): 64.4 nM
- IC50 (curve of first compound, second compound 0.316 µM): 66 nM
- IC50 (curve of first compound, second compound 1 µM): 61.8 nM
- IC50 (curve of first compound, second compound 3.16 µM): 55.6 nM
- IC50 (curve of first compound, second compound 10 µM): 58.5 nM
- viability, T/C (second compound 0.0316 µM, first compound 0.0316 µM): 77.5%
- viability, T/C (second compound 0.0316 µM, first compound 0.1 µM): 23.3%
- viability, T/C (second compound 0.0316 µM, first compound 0.316 µM): 6.61%
- viability, T/C (second compound 0.0316 µM, first compound 1 µM): 6.45%
- viability, T/C (second compound 0.0316 µM, first compound 3.16 µM): 0.84%
- viability, T/C (second compound 0.0316 µM, first compound 10 µM): 0.73%
- viability, T/C (second compound 0.1 µM, first compound 0.0316 µM): 85.7%
- viability, T/C (second compound 0.1 µM, first compound 0.1 µM): 27.9%
- viability, T/C (second compound 0.1 µM, first compound 0.316 µM): 6.63%
- viability, T/C (second compound 0.1 µM, first compound 1 µM): 6.52%
- viability, T/C (second compound 0.1 µM, first compound 3.16 µM): 1%
- viability, T/C (second compound 0.1 µM, first compound 10 µM): 0.1%
- viability, T/C (second compound 0.316 µM, first compound 0.0316 µM): 83.4%
- viability, T/C (second compound 0.316 µM, first compound 0.1 µM): 31.3%
- viability, T/C (second compound 0.316 µM, first compound 0.316 µM): 8.56%
- viability, T/C (second compound 0.316 µM, first compound 1 µM): 7.02%
- viability, T/C (second compound 0.316 µM, first compound 3.16 µM): 1.52%
- viability, T/C (second compound 0.316 µM, first compound 10 µM): 1.06%
- viability, T/C (second compound 1 µM, first compound 0.0316 µM): 82.8%
- viability, T/C (second compound 1 µM, first compound 0.1 µM): 26.2%
- viability, T/C (second compound 1 µM, first compound 0.316 µM): 8.01%
- viability, T/C (second compound 1 µM, first compound 1 µM): 5.55%
- viability, T/C (second compound 1 µM, first compound 3.16 µM): 1.26%
- viability, T/C (second compound 1 µM, first compound 10 µM): 0.1%
- viability, T/C (second compound 3.16 µM, first compound 0.0316 µM): 75.7%
- viability, T/C (second compound 3.16 µM, first compound 0.1 µM): 23.2%
- viability, T/C (second compound 3.16 µM, first compound 0.316 µM): 6.39%
- viability, T/C (second compound 3.16 µM, first compound 1 µM): 6.03%
- viability, T/C (second compound 3.16 µM, first compound 3.16 µM): 1.65%
- viability, T/C (second compound 3.16 µM, first compound 10 µM): 0.73%
- viability, T/C (second compound 10 µM, first compound 0.0316 µM): 84%
- viability, T/C (second compound 10 µM, first compound 0.1 µM): 19.4%
- viability, T/C (second compound 10 µM, first compound 0.316 µM): 7.68%
- viability, T/C (second compound 10 µM, first compound 1 µM): 5.68%
- viability, T/C (second compound 10 µM, first compound 3.16 µM): 0.98%
- viability, T/C (second compound 10 µM, first compound 10 µM): 0.19%
